From ChEMBL document CHEMBL1156111, “Identification of the amino acid-AZT-phosphoramidase by affinity T7 phage display selection” (Bioorg Med Chem Lett, 2009)

Biological target: Adenosine 5'-monophosphoramidase HINT1 (Homo sapiens) (UniProt P49773)
Assay: Ratio of kcat to km for human HINT1

Chain of Adenosine 5'-monophosphoramidase HINT1 (Homo sapiens) (P49773 whole entry): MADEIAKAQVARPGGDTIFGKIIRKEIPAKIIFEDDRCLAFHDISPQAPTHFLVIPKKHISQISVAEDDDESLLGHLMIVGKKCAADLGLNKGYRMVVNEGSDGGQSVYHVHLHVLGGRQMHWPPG

A Ratio of 25 was found for `Cc1cn([C@H]2C[C@H](N=[N+]=[N-])[C@@H](COP(=O)(O)NCc3c[nH]c4ccccc34)O2)c(=O)[nH]c1=O` in this work.
